Key:
[1] = Stability in Simulated Gastric Fluid (SGF); type: in vitro ADME; parameters: key: % parent compound remaining relative to 0-minute sample
Outline: (§1)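 Compound at 2 μg/mL final was incubated at 37° C with orbital shaking in SGF containing pepsin (pH 1.2) or SIF containing pancreatin (pH 6.8), sampled from 0 to 60 minutes. Parent remaining was measured by LC-MS/MS relative to the 0-minute sample; half-life came from ln(% remaining) versus time when enough points existed.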

[2] = Stability in Simulated Intestinal Fluid (SIF); type: in vitro ADME; parameters: key: % parent compound remaining relative to 0-minute sample
Outline: as §1

[3] = Caco-2 Permeability Assay; type: in vitro ADME, human; details: human
Outline: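 Caco-2 monolayers cultured 21 days (TEER >600 […]); test article at 10 μM in HBSS/HEPES pH 7.4 transport medium, dosed apical or basolateral, ±Pgp inhibitor. Incubated 90 min at 37 °C; both compartments quantified by LC-MS/MS. Papp (A→B, B→A), efflux ratio and % recovery calculated.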

[4] = Plasma Stability; type: in vitro ADME, human
Outline: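 Compounds incubated at 1 μM in fresh human plasma for 1 hour at 37° C, then protein-precipitated with acetonitrile/formic acid containing internal standard. Remaining parent measured by LC-MS/MS in triplicate, expressed as percent of control remaining.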

[5] = % remaining at 1 h in simulated gastric fluid
[6] = % remaining at 1 h in simulated intestinal fluid
[7] = Caco-2, pH 7.4, Caco-2 monolayer
[8] = % remaining at 1 h in human plasma
[9] = bare number, unit or time not given, the 15th table Examples 204-207
[10] = Caco-2, pH 7.4, Caco-2 monolayer, the 15th table
[11] = % remaining at 1 h in human plasma, the 15th table
[12] = simulated gastric fluid, remaining at 1 h
[13] = simulated intestinal fluid, remaining at 1 h
[14] = % remaining at 1 h, SGF with pepsin pH 1.2, 2 μg/mL, 37° C.
[15] = % remaining at 1 h, SIF with pancreatin pH 6.8, 2 μg/mL, 37° C.
[16] = Caco-2, pH 7.4, donor 10 μM, 90 minutes, 37° C., direction not given
[17] = % remaining at 1 h, human plasma, 1 μM, 37° C.

With `CC[C@H](C)[C@H](NC(=O)OC(C)(C)C)C(=O)NCCCCC(=O)OCn1ccc2c1c(=O)[nH]c(=S)n2CCOC(C)C` [Example 33] the SGF [1, 5] was 90% remaining, the SIF [2, 6] was 78% remaining and the Papp at 90 min, 10 µM [3, 7] was 9.47 ×10⁻⁶ cm/s. For the same compound, the “human Plasma stability” value [4, 8] was 53% remaining.

In the case of `CCCCOC(=O)OCSc1nc(=O)c2[nH]ccc2n1CCOC(C)C` [Example 204], the SGF [1, 9] is reported as 85, the SIF [2, 9] is reported as 2 and the Papp at 90 min, 10 µM [3, 10] is reported as 6.35 ×10⁻⁶ cm/s. The “human Plasma stability” value [4, 11] was 1% remaining.

Compound `CC(C)OCCn1c(=S)[nH]c(=O)c2c1ccn2COC(=O)CCCCNC(=O)CN(C)C(=O)OC(C)(C)C.O=C(O)C(F)(F)F` [Example 53] has an SGF [1, 5] of 92% remaining, an SIF [2, 6] of 98% remaining and a Papp at 90 min, 10 µM [3, 7] of 3.43 ×10⁻⁶ cm/s. For the same compound, the “human Plasma stability” value [4, 8] was 0% remaining.

Work on `CC(C)OCCn1c(=S)[nH]c(=O)c2c1ccn2COC(=O)CCCOC(=O)[C@H](NC(=O)OC(C)(C)C)C(C)C` [Example 355, 4-oxo-4-({4-oxo-1-[2-(propan-2-yloxy)ethyl]-2-sulfanylidene-1H,2H,3H,4H,5H-pyrrolo[3,2-d]pyrimidin-5-yl}methoxy)butyl (2R)-2-{[(tert-butoxy)carbonyl]amino}-3-methylbutanoate] yielded an SGF [1, 12] of 99% remaining, an SIF [2, 13] of 100% remaining and a Papp at 90 min, 10 µM [3, 7] of 2.16 ×10⁻⁶ cm/s. For the same compound, the “human Plasma stability” value ([4]; human plasma, remaining at 1 h) was 43% remaining.

With `CC(C)OCCn1c(=S)[nH]c(=O)c2c1ccn2COC(=O)CCCCNC(=O)[C@H](CO)NC(=O)OC(C)(C)C.O=C(O)C(F)(F)F` [Example 41] the SGF [1, 5] was 78% remaining, the SIF [2, 6] was 87% remaining and the Papp at 90 min, 10 µM [3, 7] was 1.15 ×10⁻⁶ cm/s. For the same compound, the “human Plasma stability” value [4, 8] was 21% remaining.

With `CC[C@H](C)[C@H](N)C(=O)NCCC(=O)OCn1ccc2c1c(=O)[nH]c(=S)n2CCOC(C)C.O=C(O)C(F)(F)F` [Example 38] the SGF [1, 5] was 92% remaining, the SIF [2, 6] was 84% remaining and the Papp at 90 min, 10 µM [3, 7] was 0.31 ×10⁻⁶ cm/s. The “human Plasma stability” value [4, 8] was 65% remaining.

In the case of `CC(C)OCCn1c2nc(=O)c3c1ccn3COC(=O)C(C)(C)CCCCC(C)(C)C(=O)OCS2` [Example 119, 8,8,13,13-Tetramethyl-22-[2-(propan-2-yloxy)ethyl]-6,15-dioxa-17-thia-4,19,22-triazatricyclo[16.3.1.0^{4,21}]docosa-1(21),2,18-triene-7,14,20-trione], the SGF [1, 14] is reported as 94%, the SIF [2, 15] is reported as 98% and the Papp at 90 min, 10 µM [3, 16] is reported as 31.7 ×10⁻⁶ cm/s. The “human Plasma stability” value [4, 17] was 90%.

With `CSCC[C@@H](N)C(=O)OCCC(=O)OCn1ccc2c1c(=O)[nH]c(=S)n2CCOC(C)C.O=C(O)C(F)(F)F` [Example 366, trifluoroacetic acid 3-oxo-3-({4-oxo-1-[2-(propan-2-yloxy)ethyl]-2-sulfanylidene-1H,2H,3H,4H,5H-pyrrolo[3,2-d]pyrimidin-5-yl}methoxy)propyl (2R)-2-amino-4-(methylsulfanyl)butanoate] the SGF [1, 12] was 76% remaining, the SIF [2, 13] was 2% remaining and the Papp at 90 min, 10 µM [3, 7] was under 0.76 ×10⁻⁶ cm/s. The “human Plasma stability” value ([4]; human plasma, remaining at 1 h) was 74% remaining.

`CC(C)OCCn1c(=S)[nH]c(=O)c2c1ccn2COC(=O)CCCCNC(=O)CN(C)C(=O)CN.O=C(O)C(F)(F)F` [Example 59] gave an SGF [1, 5] of 95% remaining, an SIF [2, 6] of 98% remaining and a Papp at 90 min, 10 µM [3, 7] of under 0.254 ×10⁻⁶ cm/s. The “human Plasma stability” value [4, 8] was 11% remaining.

With `CC(C)OCCn1c(=S)[nH]c(=O)c2c1ccn2COC(=O)[C@H](NC(=O)OC(C)(C)C)C(C)C` [Example 298, {4-oxo-1-[2-(propan-2-yloxy)ethyl]-2-sulfanylidene-1H,2H,3H,4H,5H-pyrrolo[3,2-d]pyrimidin-5-yl}methyl (2R)-2-{[(tert-butoxy)carbonyl]amino}-3-methylbutanoate] the SGF ([1]; % remaining @ 1 h) was 99% @ 1 h, the SIF ([2]; % remaining @ 1 h) was 59% @ 1 h and the Papp at 90 min, 10 µM ([3]; Caco-2, pH 7.4) was 33.5 ×10⁻⁶ cm/s. For the same compound, the “human Plasma stability” value ([4]; % remaining @ 1 h) was 99% @ 1 h.

With `CC(C)CNC(=O)OCSc1nc(=O)c2[nH]ccc2n1CCOC(C)C` [Example 186] the SGF ([1]; % remaining at 1 h in simulated gastric fluid, the 15th table) was 86% @ 1 h, the SIF ([2]; % remaining at 1 h in simulated intestinal fluid, the 15th table) was 100% @ 1 h and the Papp at 90 min, 10 µM [3, 10] was 7.23 ×10⁻⁶ cm/s. For the same compound, the “human Plasma stability” value [4, 11] was 98% @ 1 h.

`CC(C)OCCn1c(=S)[nH]c(=O)c2c1ccn2COC(=O)CCNC(=O)CN(C)C(=O)CNC(=O)OC(C)(C)C.O=C(O)C(F)(F)F` [Example 58] showed an SGF [1, 5] of 77% remaining, an SIF [2, 6] of 84% remaining and a Papp at 90 min, 10 µM [3, 7] of 0.287 ×10⁻⁶ cm/s. For the same compound, the “human Plasma stability” value [4, 8] was 49% remaining.

For `CC(C)OCCn1c(=S)[nH]c(=O)c2c1ccn2COC(=O)[C@@H]1CCC(=O)N1C(=O)OC(C)(C)C` [Example 85, 1-tert-Butyl 2-{4-oxo-1-[2-(propan-2-yloxy)ethyl]-2-sulfanylidene-1H,2H,3H,4H,5H-pyrrolo[3,2-d]pyrimidin-5-yl}methyl (2S)-5-oxopyrrolidine-1,2-dicarboxylate], the SGF [1, 14] was 78%, the SIF [2, 15] was 90% and the Papp at 90 min, 10 µM [3, 16] was 6.54 ×10⁻⁶ cm/s. The “human Plasma stability” value [4, 17] was 30%.

Work on `CC(C)OCCn1c(SCOC(=O)N(C)CCc2ccccc2)nc(=O)c2[nH]ccc21.O=C(O)C(F)(F)F` [Example 175] yielded an SGF ([1]; % @ 1 h (remaining) in simulated gastric fluid) of 99% @ 1 h, an SIF ([2]; % @ 1 h (remaining) in simulated intestinal fluid) of 92% @ 1 h and a Papp at 90 min, 10 µM [3, 7] of 30.9 ×10⁻⁶ cm/s. The “human Plasma stability” value ([4]; % @ 1 h (remaining) in human plasma) was 95% @ 1 h.

In the case of `CC(C)OCCn1c(=S)[nH]c(=O)c2c1ccn2COCC[Si](C)(C)C` [Example 72, 1-[2-(propan-2-yloxy)ethyl]-2-sulfanylidene-5-{[2-(trimethylsilyl)ethoxy]methyl}-1H,2H,3H,4H,5H-pyrrolo[3,2-d]pyrimidin-4-one], the SGF [1, 14] is reported as 97%, the SIF [2, 15] is reported as 98% and the Papp at 90 min, 10 µM [3, 16] is reported as 26.4 ×10⁻⁶ cm/s. For the same compound, the “human Plasma stability” value [4, 17] was 78%.

In the case of `COC(=O)[C@H](CCCCNC(=O)OC(C)(C)C)NC(=O)OCn1ccc2c1c(=O)[nH]c(=S)n2CCOC(C)C` [Example 102, Methyl (2S)-6-{[(tert-butoxy)carbonyl]amino}-2-{[({4-oxo-1-[2-(propan-2-yloxy)ethyl]-2-sulfanylidene-1H,2H,3H,4H,5H-pyrrolo[3,2-d]pyrimidin-5-yl}methoxy)carbonyl]amino}hexanoate], the SGF ([1]; % remaining at 1 h, SGF with pepsin pH 1.2, 2 μg/mL, 37° C., listed as EXAMPLE 102) is reported as 75%, the SIF ([2]; % remaining at 1 h, SIF with pancreatin pH 6.8, 2 μg/mL, 37° C., listed as EXAMPLE 102) is reported as 96% and the Papp at 90 min, 10 µM [3, 16] is reported as 1.46 ×10⁻⁶ cm/s. For the same compound, the “human Plasma stability” value ([4]; % remaining at 1 h, human plasma, 1 μM, 37° C., listed as EXAMPLE 102) was 97%.

For `CC(C)OCCn1c(=S)[nH]c(=O)c2c1ccn2COC(=O)CCNC(=O)[C@@H](NC(=O)OC(C)(C)C)C(C)C` [Example 11, {4-oxo-1-[2-(propan-2-yloxy)-ethyl]-2-sulfanylidene-1H,2H,3H,4H,5H-pyrrolo[3,2-d]pyrimidin-5-yl}methyl3-[(2S)-2-{[(tert-butoxy)carbonyl]amino}-3-methylbutanamido]propanoate], the SGF [1, 14] was 74%, the SIF [2, 15] was 69% and the Papp at 90 min, 10 µM [3, 16] was 1.44 ×10⁻⁶ cm/s. For the same compound, the “human Plasma stability” value [4, 17] was 99%.

`CC(C)OCCn1c(=S)[nH]c(=O)c2c1ccn2COC(=O)CCCCNC(=O)C1CCCN1C(=O)OC(C)C.O=C(O)C(F)(F)F` (stereo not drawn) [Example 67] showed an SGF [1, 5] of 92% remaining, an SIF [2, 6] of 93% remaining and a Papp at 90 min, 10 µM [3, 7] of 2.84 ×10⁻⁶ cm/s. For the same compound, the “human Plasma stability” value [4, 8] was 57% remaining.

In the case of `Cc1cccc(N(C)C(=O)OCSc2nc(=O)c3c(ccn3COC(=O)N(C)c3cccc(C)c3)n2CCOC(C)C)c1` [Example 246], the SGF ([1]; simulated gastric fluid, at 1 h) is reported as 98% remaining, the SIF ([2]; simulated intestinal fluid, at 1 h) is reported as 99% remaining and the Papp at 90 min, 10 µM [3, 7] is reported as 21.7 ×10⁻⁶ cm/s. For the same compound, the “human Plasma stability” value ([4]; human plasma, at 1 h) was 99% remaining.

With `CC(C)OCCn1c(=S)[nH]c(=O)c2c1ccn2COC(=O)CCCCCCCCCCCCCCC(=O)O` [Example 255, 16-oxo-16-({4-oxo-1-[2-(propan-2-yloxy)ethyl]-2-sulfanylidene-1H,2H,3H,4H,5H-pyrrolo[3,2-d]pyrimidin-5-yl}methoxy)hexadecanoic acid] the SGF [1, 14] was 95%, the SIF [2, 15] was 2% and the Papp at 90 min, 10 µM [3, 16] was 2.72 ×10⁻⁶ cm/s. The “human Plasma stability” value [4, 17] was 76%.

`CC(C)OCCn1c(SCOC(=O)CCCOC(=O)[C@H](N)C(C)C)nc(=O)c2c1ccn2COC(=O)CCCOC(=O)[C@H](N)C(C)C.O=C(O)C(F)(F)F.O=C(O)C(F)(F)F` [Example 358, bis(trifluoroacetic acid) 4-(((5-(((4-((D-valyl)oxy)butanoyl)oxy)methyl)-1-(2-isopropoxyethyl)-4-oxo-4,5-dihydro-1H-pyrrolo[3,2-d]pyrimidin-2-yl)thio)methoxy)-4-oxobutyl D-valinate] gave an SGF [1, 12] of 80% remaining, an SIF ([2]; simulated intestinal fluid, bare number, unit or time not given) of 48 and a Papp at 90 min, 10 µM [3, 7] of 1.78 ×10⁻⁶ cm/s. For the same compound, the “human Plasma stability” value ([4]; human plasma, remaining at 1 h) was 12% remaining.

From US20240067651A1 (Biohaven Therapeutics Ltd., priority 2019, published 2024)
